The values below come from patent publication US11497788B2, “Supramolecular glycosaminoglycans” (Northwestern University, priority 2015, dated 2022).

Data set [1] has as its system BMP-2, BMP-4, noggin, Shh, VEGF, FGF-1, FGF-2. Description: Surface plasmon resonance (SPR) binding to immobilized heparin binding GFs. Set-up: species or system human (Noggin murine). The note with it: analytes 50-500 nM; GFs immobilized on alginate surface; 25° C. Here is the method:
Surface Plasmon Resonance: The binding interactions between PAs (analytes) and growth factors (ligands) were analyzed via surface plasmon resonance (SPR) using a ProteON XPR36 system (Bio-Rad Laboratories). PA samples were thermally annealed as described for Cryo-TEM. PA solutions were spun down, pipetted for homogeneous mixing, and sequentially diluted to appropriate concentrations using Tween buffer (Milli-Q water, 0.05% Tween-20). Lyophilized powders of GFs were reconstituted to 5 μM without any carrier proteins according to the manufacturer's instructions. BMP-2, BMP-4, Shh, VEGF, and FGF-2 were further diluted to 200 nM in ProteOn Acetate Buffer pH 5.5, while FGF-1 was diluted to 200 nM in ProteOn Acetate Buffer pH 4.5. Noggin was diluted to 300 nM in ProteOn Acetate Buffer pH 5.5.
GFs were immobilized on a ProteOn GLC-Chip via amino coupling as described previously, with slight modifications (37). First, the alginate surface was activated with a freshly prepared mixture of 20 mM 1-Ethyl-3-[3-dimethylaminopropyl]carbodiimide hydrochloride (EDC) and 5 mM N-hydroxysulfosuccinimide (Sulfo-NHS) in Milli-Q water (vertical flow cells, 30 μL/min, 3 min). Following, GFs were immobilized on vertical flow cells 1 to 5 by perfusing a freshly prepared 200 nM (or 300 nM) solution over the activated alginate surface (30 μL/min, 5 min). Blank buffer was perfused on vertical cell 6 as a reference. The remaining esters were deactivated with 1 M ethanolamine (30 μL/min, 3 min). The association and dissociation phases were performed at 25° C. in Tween buffer. Prior to each analyte injection, the horizontal flow cells 1 to 6 were regenerated with 10 mM NaOH (100 μL/min, 30 sec) and washed once with Tween buffer (30 μL/min, 3 min). Varied analyte concentrations were injected to horizontal flow cells 1 to 5, with flow cell 6 as a reference (30 μL/min, 5 min), followed by dissociation with Tween buffer (30 μL/min, 10 min). For analysis, SPR sensorgram from the reference flow cell was subtracted from all measurement flow cells. Interaction data were evaluated using the BIAEvaluation 4.1 software. […]

A further data set concerns the target T1, BMP-2 (Homo sapiens, UniProt P12643).
T1 construct: purchased Medtronic Sofamor Danek (Minneapolis, Minn.)
T1 sequence (P12643 283-396): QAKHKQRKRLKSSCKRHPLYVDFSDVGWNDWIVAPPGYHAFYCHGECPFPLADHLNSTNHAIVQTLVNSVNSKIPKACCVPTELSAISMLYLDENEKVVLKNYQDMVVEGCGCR
Description: Confocal fluorescence imaging of Cy5-labeled BMP-2 with PA nanofibers. It counts as binding. The note with it: co-assembled with Cy3-PA 5 mol %; mixed 24 h. Here is the method: Confocal Fluorescence Imaging: PA 1, PA 4, and Cy3-PA were dissolved to 6.6 mM in saline with 6.6 mM CaCl2, pH 7.2. […] Following, PA solutions were mixed with Cy5-BMP-2 (57 μM) at 10:1 vol. ratio to yield [PA]=6 mM and [BMP-2]=5.2 μM, and incubated overnight. For confocal imaging, 20 μl of the solutions containing Cy5-labeled protein and Cy3-Labeled PA nanofibers were coverslipped in IMMU-MOUNT (Termo Scientific) and visualized using a Nikon A1R confocal laser-scanning microscope with GaAsP detectors.

The test system of data set [2] is rat posterolateral lumbar intertransverse spinal fusion model. Description: Rat posterolateral lumbar intertransverse spinal fusion model. The class given is in vivo. Here is the method: Rat Posterolateral Lumbar Intertransverse Spinal Fusion: The study was approved by and conducted in line with the Institutional Animal Care and Use Committee (IACUC) policies and procedures. […] female Sprague-Dawley rats at ages 12-16 weeks were utilized. Animals were assigned to the following treatment groups: 1) 100 ng BMP-2, n=8; 2) 100 ng BMP-2 with PA 4 nanofibers, n=12; and 3) 100 ng BMP-2 with PA 1 nanofibers, n=12. The denoted BMP-2 dose refers to total growth factor amount implanted via two absorbable collagen sponges per animal. For instance, in the 100 ng BMP-2 control group, two collagen sponges (1.75×0.5×0.5 cm) were each impregnated with 50 ng BMP-2 in 100 uL saline containing 6 mM CaCl2, then implanted adjoining the L4-L5 transverse processes on either side of the spine. For PA groups, 100 uL of PA solutions (6 mM) were used in place of saline.
PA solutions were spun down, pipetted for homogeneous mixing, then mixed with BMP-2 at 10:1 vol. ratio to yield 6 mM PA with appropriate BMP-2 concentrations.
Surgical Procedures: Rats were maintained on a heating pad under continuous anesthesia with an isoflurane inhalational anesthetic delivery system, and they were monitored by an assistant for cardiac or respiratory difficulties throughout the procedure. Utilizing a previously-described surgical technique (refs. 23, 41; incorporated by reference in their entireties), the L4 and L5 transverse processes were exposed, irrigated with sterile gentamicin/saline solution, the superficial cortical layer decorticated with a high-speed burr, then collagen sponges with appropriate treatments were implanted bilaterally in the paraspinal musculature between the transverse processes. Afterwards, the fascia and skin incisions were closed, and rats were housed in separate cages.
Manual Palpation: Fusion was assessed via manual palpation following euthanasia at 8 weeks post-surgery. Spines were scored by three blinded observers using a previously established scoring system: 0=no bridging; 1=unilateral bridging; and 2=bilateral bridging (23, 41). To assess fusion rate, spines that received an average score of 1.0 or greater were considered successfully fused.
Micro-Computed Tomography: Synchrotron micro-computed tomography (μCT) was performed on representative samples at station 2-BM of the APS (42, 43). Due to the size constraint of the μCT set-up, harvested spines were sagittally cut along the midline of the vertebrate body, using a slow-speed diamond saw (ref. 43; incorporated by reference in its entirety). Data were acquired with 27 keV photons, projections were recorded every 0.12° over 180°, and reconstruction was on a 2,048×2,048 grid with isotropic 1.45 μm voxels using TomoPy (44). […]

Data set [3] can be described thus: Zeta potential measurements. It counts as physicochemical. The protocol:
Zeta Potential Measurements: Zeta (ζ) potential was measured using a Malvern Zetasizer Nano ZS (n=3). PA samples were thermally annealed as described for Cryo-TEM. Following, PAs were diluted to 0.5 mM in DMEM. PA solutions were water-bath sonicated for 1 min prior to zeta potential measurement. Background reading from DMEM alone was subtracted from the final measurements.

For the next data set, the system named is Factor Xa. The note with it: compared to heparin.

Description for Factor Xa: Anticoagulation Assay: PA 1 was dissolved to 5 mM in saline with 5 mM CaCl2), pH 7.2, thermally annealed at 80° C. for 30 min and slowly cooled to room temperature. The PA solution was spun down, pipetted for homogeneous mixing, and diluted to 0.25, 2.5, 25, and 100 μM in saline with 2 mM CaCl2). The anticoagulant activities of PA 1 and heparin were assessed by monitoring the activity of Factor Xa, a coagulation cascade enzyme inhibited by heparin-activated antithrombin. The assay was performed using the COATEST Heparin Kit (Chromogenix) according to the manufacturer's instructions. Values were represented as the relative bioactivity of Factor Xa when compared to treatment group treated with saline only.

Take 3,4,6S-GlcNAc PA (VVAAEEK) [PA 1]: in data set [1], the “binding to heparin binding GFs (SPR)” value was “strong concentration-dependent binding”. Moreover, the “colocalization of Cy5-labeled BMP-2 with PA nanofibers” value with BMP-2 is on record as “strong colocalization”. In data set [2] (100 ng BMP-2, 6 mM PA, 8 weeks, relative to PA 4 nanofibers or saline), the “fusion scores, blind manual palpation” value is listed as “highest fusion scores”. The fusion rate in data set [2] (100 ng BMP-2, 6 mM PA, 8 weeks, score ≥1 = fused) is listed as 100%. In addition, the “new bone formation, synchrotron micro-computed tomography” value in data set [2] (100 ng BMP-2 delivered with nanofibers) is reported as “formation of new bone connecting the transverse processes”. In addition, in data set [2] (100 ng versus 10 μg BMP-2 required in the model), the “reduction of required GF (BMP-2) for spinal fusion” value came out at 100 fold. In data set [3], the “zeta potential / net charge of nanofibers” value is “highest net negative charge”. Also, in the data set with Factor Xa, the “anticoagulation activity (Factor Xa activity)” value is “minimal anticoagulation activity”.
